Test results: PMC6917776, “Discovery of a chemical probe for PRDM9” (Nature Communications, 2019)

Biological target: T1, PRDM9 (amino acids: 195–415) (Homo sapiens, UniProt Q9NQV7)
T1 construct: PRDM9 (amino acids: 195–415)
T1 sequence (Q9NQV7 195-415): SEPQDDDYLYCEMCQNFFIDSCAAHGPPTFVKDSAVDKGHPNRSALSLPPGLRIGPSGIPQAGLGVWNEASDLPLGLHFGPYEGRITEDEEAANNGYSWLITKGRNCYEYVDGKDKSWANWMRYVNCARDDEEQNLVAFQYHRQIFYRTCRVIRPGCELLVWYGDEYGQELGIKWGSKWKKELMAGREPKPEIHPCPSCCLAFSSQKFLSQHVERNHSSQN
Test: PRDM9 methyltransferase activity assay (3H-SAM scintillation proximity assay)
Format: biochemical
Conditions: PRDM9, Exp1, Exp2
Protocol: Methyltransferase activity assays for PRDM9 (amino acids: 195–415) were performed by monitoring the incorporation of tritium-labeled methyl group from ^3H-SAM to H3 (1–25) peptide using scintillation proximity assay (SPA). The enzymatic reactions were performed at 23 °C with 30 min incubation in 20 mM Tris-HCl (pH 7.5), 5 mM DTT, 0.01% Triton X-100 and 1% DMSO containing 71 μM of SAM (5 μM of ^3H-SAM), 4 μM of biotinylated H3 (1–25) peptide and 5 nM of PRDM9. For PRDM7, reactions were performed at 23 °C with 90 min incubation in 20 mM BTP pH 9.0, 5 mM DTT, 0.01% Triton X-100 and 1% DMSO containing 900 μM of SAM (5 μM of ^3H-SAM), 4 μM of biotinylated H3 (1–25) peptide and 100 nM of enzyme. […] To stop the reactions, 10 μL of 7.5 M guanidine hydrochloride was added to 10 μL of reaction mixture, followed by 60 μL of buffer (20 mM Tris, pH 8.0), mixed, and transferred to a 384-well streptavidin coated Flash-plate. After mixing, the mixtures in Flash-plate were incubated for 2 h, and the CPM counts were measured using TopCount plate reader. All enzymatic reactions were performed in triplicate, and IC50 values were determined by fitting the data to Four Parameter Logistic equation using the GraphPad Prism software.

Molecule `COc1cc(OC)cc(-c2noc(N3CCN(C)C4(CCN(c5ccccc5)CC4)C3)n2)c1` [MRK-740 -NC] has an activity at 1 µM (1µM compound) of 97%, an Activity % (1µM compound, 1 µM) of 90% and an activity at 10 µM (10µM compound) of 96%. For the same molecule, the Activity % (10µM compound, 10 µM) was 93%.
